The values that follow come from PubChem BioAssay AID504322 (Emory University Molecular Libraries Screening Center, 2011).

Activity calls are given as the source filed them. The rule behind the calls is not given here. Where only a bound is given, the exact number is not on record here.

For this assay, the system named is CHOP reporter cell assay, percent of control. Briefly: CHOP reporter inhibitor potency, dose response, cell-based (AID 504322).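 Note: CHO cells carrying a CHOP reporter stimulated with tunicamycin to induce ER stress; potency is for inhibition of the stress-induced reporter signal.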
As to `Cc1nn(-c2ccc(C(F)(F)F)cn2)c(C)c1Oc1ccccc1O`, the IC50 is 5.94 µM (inactive). `Cn1ncc2c(O/N=C(\N)c3ccc(C(C)(C)C)cc3)ncnc21`: the IC50 was 4.27 µM. Consider `COC(=O)c1cc(NC(=S)Nc2cc(Cl)cc(Cl)c2)cc(C(=O)OC)c1`, for which the IC50 is > 10 µM (inactive). With `CC(C)(C)C(=O)NC(NC(=S)Nc1sc2c(c1C#N)CCCC2)C(Cl)(Cl)Cl` (configuration not stated), the IC50 was > 10 µM (inactive). Regarding `Fc1ccc(-c2nn(-c3ccccc3)cc2CNCc2ccccc2)cc1`, the IC50 is 9.62 µM (inactive). Take `CC1=CC(=O)C=C(C)C1=NOS(=O)(=O)c1ccccc1`: the IC50 is 5.48 µM (inactive).

With `CC1=CC(C)(C)N(C(=O)c2ccc(F)cc2)c2cc3c(cc21)OCO3`, the IC50 was 5.31 µM (inactive). On to `Cc1ccc(C(=O)Nc2cnc3ccccc3c2)cc1`, for which the IC50 is 8.6 µM (inactive). With `O=C(NCc1ccccc1)c1cc(-c2ccncc2)nc2ccc(S(=O)(=O)N3CCOCC3)cc12`, the IC50 was 9.8 µM (inactive). The result for `Cc1ccccc1CS(=O)(=O)c1nnc([C@H](Cc2ccccc2)NC(=O)OC(C)(C)C)o1` reads 4.01 µM; that for `O=C1c2ccccc2C(=O)c2c1oc(C(F)(F)F)c2C(=O)c1ccccc1`, 9.61 µM (inactive); that for `COc1ccc2nc(Nc3nc(CSc4nc5ccccc5[nH]4)cc(=O)[nH]3)nc(C)c2c1`, 2.33 µM (inactive). Consider `CC1(C)CC(C(CCN(Cc2ccccc2)C(=O)c2ccco2)c2ccc(F)cc2)CCO1` (configuration not stated), for which the IC50 was 9.7 µM (inactive). On to `Nc1c(S(=O)(=O)c2cccc(Cl)c2)c2nc3ccccc3nc2n1/N=C/c1ccc(O)c(O)c1`, for which the IC50 is 4.97 µM (inactive).

With `CCCOc1ccc(Cc2c(Cl)nc(SC)nc2NC)cc1`, the IC50 is 8.18 µM (inactive). For `O=C(Nc1ccccc1)C1=C(c2ccccc2)S(=O)(=O)CCS1(=O)=O`, the IC50 was 9.67 µM (inactive). The value for `Fc1ccc(Nc2nc(NCc3ccco3)c3ccccc3n2)cc1` was > 10 µM (inactive); that for `CC1CCN(c2nc3ccc(C(=O)O)cc3s2)CC1` was 0.71 µM. Take `CC(C)(C)C1CCC(C(=O)OCC(=O)c2ccc[nH]2)CC1` (configuration not stated): the IC50 was 6.04 µM (inactive). The result for `O=C(Nc1ccccc1NC(=O)NC1CCCCC1)NC1CCCCC1` reads 8.46 µM (inactive); that for `O=C(Nc1nccs1)c1cc2c(s1)CCCCC2`, > 10 µM (inactive); that for `C#CC(=O)N(c1ccc(OC)c(OC)c1)C(C(=O)NC1CCCC1)c1cccs1` (configuration not stated), 5.28 µM (inactive).

With `COc1ccc(NC(=O)/C(Cl)=C(/Cl)S(=O)(=O)Cc2ccc(C)cc2)cn1`, the IC50 was > 10 µM (inactive). With `Cc1ccc(NC(=O)NC(=O)CN2C(=O)NC3(CCCCCCC3)C2=O)c(C)c1`, the IC50 is 9.53 µM (inactive). With `CCc1ccc(OCC(=O)NC(NC(=S)Nc2ccc(C)cc2C)C(Cl)(Cl)Cl)cc1` (configuration not stated), the IC50 is 8.46 µM (inactive). `OCCCNc1nccc(-c2cc(Nc3cccc(Cl)c3)ncn2)n1`: the IC50 was 0.3 µM. For `O=Cc1s/c(=N\S(=O)(=O)c2ccccc2)n(CCCCl)c1Cl`, the IC50 was 5.89 µM (inactive). Regarding `Cc1cc(/C=N/n2cnnc2)c(C)n1-c1ccc(OCc2ccc(Cl)cc2Cl)cc1`, the IC50 was < 0.16 µM (inactive).

As for `Cc1cc(C(=O)COC(=O)c2ccccc2O)c(C)n1Cc1cccs1`, the IC50 was < 0.16 µM (inactive). With `COc1ccc(NC(=O)c2cc(-c3cc(C)cc(C)c3O)n[nH]2)cc1Cl`, the IC50 is 8.79 µM (inactive). The value for `Cc1cccnc1NC(=O)c1c(O)c2ccccc2n(C)c1=O` was > 10 µM (inactive); that for `COc1ccccc1C(=O)Oc1ccc(C(C)C)cc1` was > 10 µM (inactive). In the case of `O=C(Nc1ccc(Oc2c(F)c(F)c(F)c(F)c2F)cc1)OC1CCN2Cc3ccccc3N=C12` (configuration not stated), the IC50 is 8.37 µM (inactive).

As for `O=C(OCn1ncc(Cl)c(Cl)c1=O)c1ccc(F)cc1`, the IC50 is 3.35 µM.

Turning to `O=c1c2ccccc2nc2n1CCN2Cc1ccc(Cl)cc1`, the IC50 was 9.8 µM (inactive). The value for `Nc1c(C(=O)Nc2ccccc2F)sc2nc(-c3cccnc3)ccc12` was > 10 µM (inactive); that for `COc1cc(-c2nc3ccc4ccccc4c3c3c2CCC3)cc(OC)c1O` was > 10 µM (inactive); that for `COc1cc(OC)c(OC)cc1/C=N/Nc1ncnc2c1[nH]c1ccccc12` was 9.19 µM (inactive). As for `Cc1ccc(C2(c3ccc(C)cc3)CC2C(=O)Nc2ccc([N+](=O)[O-])cc2O)cc1` (configuration not stated), the IC50 was 8.64 µM (inactive). Turning to `CCCCN=c1scc(-c2ccc3c(c2)NC(=O)CO3)n1N=C1CCCC1`, the IC50 is 8 µM (inactive). In the case of `CC1CN(S(=O)(=O)c2ccc(C(=O)Nc3nc(-c4cc5ccccc5o4)cs3)cc2)CC(C)O1` (configuration not stated), the IC50 was 9.56 µM (inactive). For the compound `Cc1[nH]c2ccccc2c1/C=N/NC(=O)C1CC1(c1ccccc1)c1ccccc1` (configuration not stated), the IC50 is > 10 µM (inactive). As for `O=C(CCl)Nc1ccc(Sc2ccc(NC(=O)CCl)cc2)cc1`, the IC50 is 4.97 µM. The result for `CCOC(=O)c1c(/N=C/c2c(O)n(-c3cccc(C)c3)c(=O)[nH]c2=O)sc2c1CCCC2` reads 2.39 µM; that for `O=C(Nc1ccccc1C(F)(F)F)c1cc(-c2ccc(O)cc2)on1`, 9.47 µM (inactive); that for `O=C1C=CC(O)(c2cc(=O)c3c(O)cc(O)cc3o2)C=C1`, 2.58 µM. Consider `CC1CCC(n2c(=S)[nH]c3ccccc3c2=O)CC1` (configuration not stated), for which the IC50 was > 10 µM (inactive). Consider `C=CCc1cc(C)ccc1OCC(O)CN1CCN(c2ccccc2)CC1` (configuration not stated), for which the IC50 was 3.94 µM (inactive). As for `COc1ccc(-c2nc(-c3ccc(NC(=O)c4ccc(Br)o4)cc3)no2)cc1OC`, the IC50 is > 10 µM (inactive). Regarding `Cc1ccc(NC(=S)NC(NC(=O)Cc2cccc3ccccc23)C(Cl)(Cl)Cl)cc1` (configuration not stated), the IC50 is > 10 µM (inactive). As for `CCN1CCN(Cc2ccc(NC(=O)c3ccc(C)c(NC(=O)c4c[nH]c5cc(C(F)(F)F)ccc5c4=O)c3)cc2C(F)(F)F)CC1`, the IC50 is 4.74 µM. `CCSc1nc2ccccc2n1C(=O)/C=C/c1ccc(OC)c(OC)c1`: the IC50 is 4.97 µM.

As to `COC(=O)/C(=C(/F)Sc1cc(C)c(O)c(C)c1)C(F)(F)F`, the IC50 was 9.36 µM (inactive). In the case of `Cc1ccc(NC2=C/C(=N\S(=O)(=O)c3cccs3)c3ccccc3C2=O)c(C)c1`, the IC50 is 4.52 µM. For the compound `CC[C@@H](C)[C@H](NC(=O)OC(C)(C)C)c1nnc(S(=O)(=O)Cc2cc(C)ccc2C)o1`, the IC50 was > 10 µM (inactive). `Cc1nc(NC(=O)CSc2nc3cccnc3n2Cc2ccccc2)sc1C`: the IC50 is > 10 µM (inactive).

For `CCOC(=O)c1c(C)[nH]c2c1-c1ccccc1C(=O)C2=O`, the IC50 is 2.38 µM. The result for `O=S1(=O)C=C(Sc2nc3cc(Cl)ccc3o2)c2ccccc21` reads 2.91 µM. For the compound `O=S(=O)(NC1CC1)c1ccc(S(=O)(=O)N2CCCC3(CCCCC3)C2)cc1`, the IC50 is 6.79 µM (inactive). The result for `CC(C)CC(NC(=O)c1ccc(Cl)cc1)C(=O)OCC(=O)c1ccc2c(c1)NC(=O)CO2` (configuration not stated) reads 1.6 µM. For the compound `O=c1c(Cl)c(Cl)cnn1Cc1nnc(-c2ccccc2Br)o1`, the IC50 was 3.77 µM. For `COc1cc(-c2nc3c(c(C)nn3-c3ccccc3)c3cc(OC)c(OC)cc23)ccc1O`, the IC50 is 9.85 µM (inactive).
